#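 Tested at 5 concentrations; 48 h exposure; 96-well plates; endpoints linearly interpolated, else capped at highest concentration. The concentration for 50% growth inhibition is given as GI50.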 Active and inactive are the calls of the source. Cut-off read from the data, not from the text of the source: active = GI50 up to about 1.1 µM and inactive = higher.
# Legend:
# Test in all cases: NCI-60 cell line screen, 48 h
# [1] = system: RPMI-8226
# [2] = system: LOX IMVI
# [3] = system: UACC-257
# [4] = system: SK-MEL-28
# [5] = system: M14
# [6] = system: Malme-3M
# [7] = system: SR
# [8] = system: NCI-H23
# [9] = system: KM12
# [10] = system: SNB-19
# [11] = system: SK-MEL-2
# [12] = system: SW-620
# [13] = system: SF-539
# [14] = system: OVCAR-8
# [15] = system: IGROV-1
# [16] = system: K562
# [17] = system: NCI-H226
# [18] = system: MOLT-4
# [19] = system: NCI-H522
SMILES,GI50 [1],GI50 [2],GI50 [3],GI50 [4],GI50 [5],GI50 [6],GI50 [7],GI50 [8],GI50 [9],GI50 [10],GI50 [11],GI50 [12],GI50 [13],GI50 [14],GI50 [15],GI50 [16],GI50 [17],GI50 [18],GI50 [19]
CC1(C2CCC3(C)OC3C2)CO1 (stereo unspecified),> 100 µM (inactive),> 100 µM (inactive),> 100 µM (inactive),> 100 µM (inactive),> 100 µM (inactive),> 100 µM (inactive),> 100 µM (inactive),> 100 µM (inactive),> 100 µM (inactive),> 100 µM (inactive),> 100 µM (inactive),> 100 µM (inactive),> 100 µM (inactive),> 100 µM (inactive),> 100 µM (inactive),> 100 µM (inactive),> 100 µM (inactive),> 100 µM (inactive),> 100 µM (inactive)
COC(=O)[C@H]1C=C[C@@H](C)n2c(=O)c3cc4ccccc4cc3c(=O)n21,> 100 µM (inactive),> 100 µM (inactive),> 100 µM (inactive),> 100 µM (inactive),> 100 µM (inactive),> 100 µM (inactive),> 100 µM (inactive),> 100 µM (inactive),> 100 µM (inactive),> 100 µM (inactive),> 100 µM (inactive),> 100 µM (inactive),> 100 µM (inactive),> 100 µM (inactive),> 100 µM (inactive),> 100 µM (inactive),> 100 µM (inactive),> 100 µM (inactive),> 100 µM (inactive)
COc1ccc2ccccc2c1CN1CCOCCOCCN(Cc2c(OC)ccc3ccccc23)CCOCCOCC1,10.8 µM (inactive),> 68.5 µM (inactive),45.2 µM (inactive),> 45.2 µM (inactive),17.1 µM (inactive),> 45.9 µM (inactive),0.514 µM (active),> 75.3 µM (inactive),> 41.7 µM (inactive),> 100 µM (inactive),46.3 µM (inactive),> 62.1 µM (inactive),> 45.3 µM (inactive),> 100 µM (inactive),> 100 µM (inactive),> 25.6 µM (inactive),99.3 µM (inactive),> 49.8 µM (inactive),> 60.5 µM (inactive)
COc1ccc2c(c1)[n+]([O-])c(/C(C)=N/NC(=O)CC#N)c[n+]2[O-],54.7 µM (inactive),> 100 µM (inactive),> 100 µM (inactive),> 100 µM (inactive),> 100 µM (inactive),> 100 µM (inactive),> 100 µM (inactive),> 100 µM (inactive),> 100 µM (inactive),> 100 µM (inactive),> 100 µM (inactive),11.1 µM (inactive),> 100 µM (inactive),> 100 µM (inactive),> 100 µM (inactive),> 100 µM (inactive),> 100 µM (inactive),> 100 µM (inactive),> 100 µM (inactive)
COC(=O)c1nn(C(=N)c2ccc(Cl)cc2)c2c1CCCCC2,> 100 µM (inactive),> 100 µM (inactive),> 100 µM (inactive),> 100 µM (inactive),> 100 µM (inactive),> 100 µM (inactive),> 100 µM (inactive),> 100 µM (inactive),> 100 µM (inactive),> 100 µM (inactive),> 100 µM (inactive),> 100 µM (inactive),> 100 µM (inactive),,> 100 µM (inactive),> 100 µM (inactive),> 100 µM (inactive),> 100 µM (inactive),> 100 µM (inactive)
CC12C(=CC(=O)CC1SCCS(=O)(=O)O)C(C#N)=C(N)N2c1ccc(Cl)c(Cl)c1 (stereo unspecified),> 100 µM (inactive),> 100 µM (inactive),> 100 µM (inactive),> 100 µM (inactive),,,> 100 µM (inactive),> 100 µM (inactive),> 100 µM (inactive),> 100 µM (inactive),> 100 µM (inactive),78.9 µM (inactive),> 100 µM (inactive),> 100 µM (inactive),> 100 µM (inactive),> 100 µM (inactive),> 100 µM (inactive),> 100 µM (inactive),36 µM (inactive)
